Reference: US6316472A, “Heterosubstituted pyridine derivatives as PDE 4 inhibitors” (Merck Frosst Canada & Co., priority 2000, dated 2001)
pIC50: −log10 of the molar value.

Target: T1, GST-Met 248 PDE 4a (Homo sapiens, UniProt P27815)
T1 construct: human recombinant phosphodiesterase IVa (met-248); made in house; host or cells: baculovirus/Sf-9 insect cells
Experiment: SPA based PDE Activity Assay (hydrolysis of cAMP to AMP)
Assay type: biochemical
Settings: 100 nM cAMP; purified GST fusion protein of human recombinant phosphodiesterase IVa (met-248), baculovirus/Sf-9; 30° C., 10 min
Protocol: SPA based PDE Activity Assay Protocol
Compounds which inhibit the hydrolysis of cAMP to AMP by the type-IV cAMP-specific phosphodiesterases were screened in 96-well plate format as follows:
In a 96 well-plate at 30° C. was added the test compound (dissolved in 2 μl DMSO), […] of substrate buffer containing [2,8-^3 H] adenosine 3',5'-cyclic phosphate (cAMP, 100 nM to 50 μM), 10 mM MgCl2, 1 mM EDTA, 50 mM Tris, pH 7.5. The reaction was initiated by the addition of […] of human recombinant PDE-IV (the amount was controlled so that ~10% product was formed in 10 min.). The reaction was stopped after 10 min. by the addition of 1 mg of PDE-SPA beads (Amersham). The product AMP generated was quantified on a Microbeta 96-well plate counter. The signal in the absence of enzyme was defined as the background. 100% activity was defined as the signal detected in the presence of enzyme and DMSO with the background subtracted. Percentage of inhibition was calculated accordingly. IC50 value was approximated with a non-linear regression fit using the standard 4-parameter/multiple binding sites equation from a ten point titration.
IC50 values shown in Table 7 were determined with 100 nM cAMP using the purified GST fusion protein of the human recombinant phosphodiesterase IVa (met-248) produced from a baculovirus/Sf-9 expression system.

T1 sequence (P27815 248-886 limits assumed): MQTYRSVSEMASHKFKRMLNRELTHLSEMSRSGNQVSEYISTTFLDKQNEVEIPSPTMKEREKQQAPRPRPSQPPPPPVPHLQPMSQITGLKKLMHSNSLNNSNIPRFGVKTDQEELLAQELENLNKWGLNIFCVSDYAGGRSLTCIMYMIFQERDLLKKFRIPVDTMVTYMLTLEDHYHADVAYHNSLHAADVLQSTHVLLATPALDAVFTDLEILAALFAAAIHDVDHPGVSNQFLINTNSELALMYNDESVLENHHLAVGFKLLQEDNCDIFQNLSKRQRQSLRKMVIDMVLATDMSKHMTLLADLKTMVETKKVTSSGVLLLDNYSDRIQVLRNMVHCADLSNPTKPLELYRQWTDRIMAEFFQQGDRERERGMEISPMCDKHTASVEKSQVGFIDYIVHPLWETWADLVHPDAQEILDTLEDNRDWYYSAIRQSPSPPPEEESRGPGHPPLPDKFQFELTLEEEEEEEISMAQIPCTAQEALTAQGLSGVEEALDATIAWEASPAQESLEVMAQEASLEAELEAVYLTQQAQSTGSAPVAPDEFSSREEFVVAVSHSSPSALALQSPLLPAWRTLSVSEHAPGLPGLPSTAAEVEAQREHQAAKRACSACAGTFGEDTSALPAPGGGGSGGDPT

| pIC50 | SMILES |
| --- | --- |
| 8.26 | NS(=O)(=O)c1cccc(Sc2ccc(C(Cc3ccncc3)c3ccc(OC(F)F)c(OC(F)F)c3)cn2)c1 (centres unmarked) [Example 1, 4-{2-[3,4-Bis(difluoromethoxy)phenyl]-2-{6-[3-(aminosulfonyl)benzenethiol]3-pyridyl}ethyl}pyridine] |
| 7.67 | O=[N+]([O-])c1ccc(S(=O)(=O)c2ccc(C(Cc3cc[n+]([O-])cc3)c3ccc(OC(F)F)c(OC(F)F)c3)cn2)cc1 (centres unmarked) [Example 4, 4-{2-[3,4-Bis(difluoromethoxy)phenyl]-2-[6-(4-nitrobenzenesulfonyl)3-pyridyl]ethyl}pyridine-N-oxide] |
